Measurements reported in ChEMBL document CHEMBL1144487 (Bioorg Med Chem, 2007).

Key:
[1] = Cytotoxicity against rat K-ras transformed NRK K/1 cells after 5 days; assay type: cell-based; conditions: NRK K/1, 120 h, read-out: LC50 (the source's name)
[2] = Cytotoxicity against mouse 3LL cells after 5 days; assay type: cell-based; conditions: 120 h, read-out: LC50 (the source's name)
[3] = Differential index, LC50 for rat NRK 52E cells to LC50 for rat N-ras transformed NRK N/4.2 cells; assay type: ADME, cell-based; conditions: NRK 52E cells versus N-ras transformed NRK N/4.2 cells
[4] = Differential index, LC50 for rat NRK 52E cells to LC50 for rat H-ras transformed NRK H/1.2 cells; assay type: ADME, cell-based; conditions: NRK 52E cells versus H-ras transformed NRK H/1.2 cells
[5] = Cytotoxicity against rat H-ras transformed NRK H/1.2 cells after 5 days; assay type: cell-based; conditions: NRK H/1.2, 120 h, read-out: LC50 (the source's name)
[6] = Cytotoxicity against rat NRK 52E cells after 5 days; assay type: cell-based; conditions: read-out: LC50
[7] = Cytotoxicity against rat N-ras transformed NRK N/4.2 cells after 5 days; assay type: cell-based; conditions: NRK N/4.2, 120 h, read-out: LC50 (the source's name)
[8] = Differential index, LC50 for rat NRK 52E cells to LC50 for mouse 3LL cells; assay type: ADME, cell-based; conditions: NRK 52E cells versus 3LL cells
[9] = Differential index, LC50 for rat NRK 52E cells to LC50 for rat K-ras transformed NRK K/1 cells; assay type: ADME, cell-based; conditions: NRK 52E cells versus K-ras transformed NRK K/1 cells

CCCCOC(=O)c1cc2c([nH]c3ccccc32)c(-c2ccc3c(n2)C(=O)C(NC(=O)CCC)=CC3=O)n1 [LAV12]
CC50 [1]: 500 nM
CC50 [2]: 2300 nM
selectivity ratio [3]: 0.9
selectivity ratio [4]: 1.6
CC50 [5]: 400 nM
CC50 at 120 h [6]: 660 nM
CC50 [7]: 700 nM
selectivity ratio [8]: 0.3
selectivity ratio [9]: 1.3

COC(=O)c1cc2c([nH]c3ccccc32)c(-c2ccc3c(n2)C(=O)C(NC(C)=O)=CC3=O)n1
CC50 [1]: 110 nM
CC50 [2]: 840 nM
selectivity ratio [3]: 1
selectivity ratio [4]: 1
CC50 [5]: 510 nM
CC50 at 120 h [6]: 500 nM
CC50 [7]: 520 nM
selectivity ratio [8]: 0.6
selectivity ratio [9]: 4.5

Cc1ccc2c(n1)C(=O)C(NC(=O)CCl)=CC2=O
CC50 [1]: 6600 nM
CC50 [2]: 2300 nM
CC50 [5]: 2800 nM
CC50 at 120 h [6]: 3200 nM
CC50 [7]: 3400 nM

CC(=O)NC1=CC(=O)c2ccc(-c3[nH]ccc4c5ccccc5nc3-4)nc2C1=O
CC50 [1]: 440 nM
CC50 [2]: 3000 nM
selectivity ratio [3]: 0.8
selectivity ratio [4]: 1
CC50 [5]: 400 nM
CC50 at 120 h [6]: 400 nM
CC50 [7]: 490 nM
selectivity ratio [8]: 0.1
selectivity ratio [9]: 0.9

Cc1ccc2c(n1)C(=O)C(NC(=O)C(C)C)=CC2=O
CC50 [1]: 7500 nM
CC50 [2]: 710 nM
CC50 [5]: 1450 nM
CC50 at 120 h [6]: 1500 nM
CC50 [7]: 1150 nM

COC(=O)c1cc2c([nH]c3ccccc32)c(-c2ccc3c(n2)C(=O)C(NC(=O)C(C)C)=CC3=O)n1
CC50 [1]: 500 nM
CC50 [2]: 1300 nM
selectivity ratio [3]: 1.1
selectivity ratio [4]: 1.1
CC50 [5]: 660 nM
CC50 at 120 h [6]: 700 nM
CC50 [7]: 640 nM
selectivity ratio [8]: 0.5
selectivity ratio [9]: 1.4

CCCCCCCCOC(=O)c1cc2c([nH]c3ccccc32)c(-c2ccc3c(n2)C(=O)C(NC(=O)CCl)=CC3=O)n1
CC50 [1]: 15000 nM
CC50 [2]: > 33000 nM
selectivity ratio [3]: 1
CC50 [5]: > 33000 nM
CC50 at 120 h [6]: > 33000 nM
CC50 [7]: > 33000 nM
selectivity ratio [9]: > 2.2

CC(=O)NC1=CC(=O)c2ccc(-c3nc(C(=O)OCCN(C)C)c(C)c4c3[nH]c3ccccc34)nc2C1=O
CC50 [1]: 60 nM
CC50 [2]: 480 nM
selectivity ratio [3]: 1
selectivity ratio [4]: 1
CC50 [5]: 90 nM
CC50 at 120 h [6]: 90 nM
CC50 [7]: 90 nM
selectivity ratio [8]: 0.2
selectivity ratio [9]: 1.5

CCCC(=O)NC1=CC(=O)c2ccc(-c3nc(C(=O)OC)c(C)c4c3[nH]c3ccccc34)nc2C1=O
CC50 [1]: 330 nM
CC50 [2]: 820 nM
selectivity ratio [3]: 0.8
selectivity ratio [4]: 0.8
CC50 [5]: 400 nM
CC50 at 120 h [6]: 320 nM
CC50 [7]: 420 nM
selectivity ratio [8]: 0.4
selectivity ratio [9]: 1

CC(=O)NC1=CC(=O)c2ccc(-c3nc(C(=O)OCc4ccccc4)cc4c3[nH]c3ccccc34)nc2C1=O
CC50 [1]: 9500 nM
CC50 [2]: > 33000 nM
selectivity ratio [3]: < 0.3
selectivity ratio [4]: < 0.9
CC50 [5]: > 10000 nM
CC50 at 120 h [6]: 9500 nM
CC50 [7]: > 33000 nM
selectivity ratio [8]: < 0.3
selectivity ratio [9]: 1

Cc1ccc2c(n1)C(=O)C(NCCCCO)=CC2=O
CC50 [1]: 13500 nM
CC50 [2]: 3800 nM
CC50 [5]: 10500 nM
CC50 at 120 h [6]: 10500 nM

CC(=O)NC1=CC(=O)c2nc(C)ccc2C1=O
CC50 [1]: > 33000 nM
CC50 [2]: > 33000 nM
CC50 [5]: 20000 nM
CC50 at 120 h [6]: 21500 nM

CCOC(=O)c1cc2c([nH]c3ccccc32)c(-c2ccc3c(n2)C(=O)C(NC(C)=O)=CC3=O)n1
CC50 [1]: 40 nM
CC50 [2]: 3200 nM
selectivity ratio [3]: 0.7
selectivity ratio [4]: 0.8
CC50 [5]: 360 nM
CC50 at 120 h [6]: 300 nM
CC50 [7]: 200 nM
selectivity ratio [8]: 0.1
selectivity ratio [9]: 7.5

CC(=O)NC1=CC(=O)c2ccc(-c3nc(C(=O)OCCN(C)C)cc4c3[nH]c3ccccc34)nc2C1=O
CC50 [1]: 140 nM
CC50 [2]: 500 nM
selectivity ratio [3]: 1.3
selectivity ratio [4]: 1.5
CC50 [5]: 240 nM
CC50 at 120 h [6]: 370 nM
CC50 [7]: 290 nM
selectivity ratio [8]: 0.7
selectivity ratio [9]: 2.6

CC(=O)NC1=CC(=O)c2ccc(-c3nc(C(=O)OC4CCCCC4)cc4c3[nH]c3ccccc34)nc2C1=O
CC50 [1]: 400 nM
CC50 [2]: 1000 nM
selectivity ratio [3]: 1
selectivity ratio [4]: 1
CC50 [5]: 690 nM
CC50 at 120 h [6]: 700 nM
CC50 [7]: 700 nM
selectivity ratio [8]: 0.7
selectivity ratio [9]: 1.7

CC(=O)NC1=CC(=O)c2ccc(-c3nc(C(=O)OCCC(C)C)c(C)c4c3[nH]c3ccccc34)nc2C1=O
CC50 [1]: 5000 nM
CC50 [2]: 7400 nM
selectivity ratio [3]: 1.2
selectivity ratio [4]: 1.1
CC50 [5]: 4300 nM
CC50 at 120 h [6]: 4160 nM
CC50 [7]: 3890 nM
selectivity ratio [8]: 0.6
selectivity ratio [9]: 0.9

CCCCOC(=O)c1cc2c([nH]c3ccccc32)c(-c2ccc3c(n2)C(=O)C(NC(=O)C(C)C)=CC3=O)n1
CC50 [1]: 400 nM
CC50 [2]: 900 nM
selectivity ratio [3]: 1.8
selectivity ratio [4]: 1.5
CC50 [5]: 610 nM
CC50 at 120 h [6]: 900 nM
CC50 [7]: 500 nM
selectivity ratio [8]: 1
selectivity ratio [9]: 2.3

CC(=O)NC1=CC(=O)c2ccc(-c3[nH]c(CO)cc4c5ccccc5nc3-4)nc2C1=O
CC50 [1]: 200 nM
CC50 [2]: 440 nM
selectivity ratio [3]: 1.1
selectivity ratio [4]: 1.2
CC50 [5]: 200 nM
CC50 at 120 h [6]: 250 nM
CC50 [7]: 220 nM
selectivity ratio [8]: 0.6
selectivity ratio [9]: 1.2

CC(=O)NC1=CC(=O)c2cc(C)cnc2C1=O
CC50 [1]: 1800 nM
CC50 [2]: 1000 nM
CC50 [5]: 1100 nM
CC50 at 120 h [6]: 1300 nM

CCCCOC(=O)c1cc2c([nH]c3ccc(OC)cc32)c(-c2ccc3c(n2)C(=O)C(NC(C)=O)=CC3=O)n1
CC50 [1]: 2200 nM
CC50 [2]: > 3300 nM
selectivity ratio [3]: 1.1
selectivity ratio [4]: 1.2
CC50 [5]: 2100 nM
CC50 at 120 h [6]: 2500 nM
CC50 [7]: 2200 nM
selectivity ratio [8]: < 0.7
selectivity ratio [9]: 1.1

O=Cc1ccc2c(n1)C(=O)C(NC(=O)CCl)=CC2=O
CC50 [1]: 5800 nM
CC50 [2]: 2100 nM
CC50 [5]: 3400 nM
CC50 at 120 h [6]: 3600 nM
CC50 [7]: 3200 nM

CCCC(=O)NC1=CC(=O)c2ccc(-c3nc(C(=O)OC)cc4c3[nH]c3ccccc34)nc2C1=O
CC50 [1]: 500 nM
CC50 [2]: 1300 nM
selectivity ratio [3]: 1.1
selectivity ratio [4]: 1.1
CC50 [5]: 660 nM
CC50 at 120 h [6]: 700 nM
CC50 [7]: 640 nM
selectivity ratio [8]: 0.5
selectivity ratio [9]: 1.4

CCCC(=O)NC1=CC(=O)c2ccc(-c3nc(C(=O)OCCC(C)C)cc4c3[nH]c3ccccc34)nc2C1=O
CC50 [1]: 600 nM
CC50 [2]: 2400 nM
selectivity ratio [3]: 1.5
selectivity ratio [4]: 2.7
CC50 [5]: 370 nM
CC50 at 120 h [6]: 1000 nM
CC50 [7]: 650 nM
selectivity ratio [8]: 0.4
selectivity ratio [9]: 1.6

CC(C)C(=O)NC1=CC(=O)c2ccc(C=O)nc2C1=O
CC50 [1]: 2150 nM
CC50 [2]: 1000 nM
CC50 [5]: > 3300 nM
CC50 at 120 h [6]: > 3300 nM
CC50 [7]: > 3300 nM

CCCCOC(=O)c1cc2c([nH]c3ccc(F)cc32)c(-c2ccc3c(n2)C(=O)C(NC(C)=O)=CC3=O)n1
CC50 [1]: 330 nM
CC50 [2]: 2100 nM
selectivity ratio [3]: 0.8
selectivity ratio [4]: 0.9
CC50 [5]: 700 nM
CC50 at 120 h [6]: 620 nM
CC50 [7]: 840 nM
selectivity ratio [8]: 0.3
selectivity ratio [9]: 1.9

CC(=O)NC1=CC(=O)c2ccc(-c3[nH]c(C(=O)O)cc4c5ccccc5nc3-4)nc2C1=O
CC50 [1]: 70 nM
CC50 [2]: 400 nM
selectivity ratio [3]: 1.5
selectivity ratio [4]: 1.4
CC50 [5]: 110 nM
CC50 at 120 h [6]: 150 nM
CC50 [7]: 100 nM
selectivity ratio [8]: 0.4
selectivity ratio [9]: 2.1

CC(=O)NC1=CC(=O)c2ccc(C(=O)O)nc2C1=O
CC50 [1]: > 33000 nM
CC50 [2]: 26000 nM
CC50 [5]: > 31000 nM
CC50 at 120 h [6]: > 33000 nM

CC(=O)NC1=CC(=O)c2ccc(C=O)nc2C1=O
CC50 [1]: 2600 nM
CC50 [2]: 1200 nM
CC50 [5]: 2500 nM
CC50 at 120 h [6]: 1300 nM

CCCCOC(=O)c1cc2c([nH]c3ccccc32)c(-c2ccc3c(n2)C(=O)C(NC(=O)CCl)=CC3=O)n1
CC50 [1]: 520 nM
CC50 [2]: 2300 nM
selectivity ratio [3]: 0.9
selectivity ratio [4]: 1.3
CC50 [5]: 740 nM
CC50 at 120 h [6]: 960 nM
CC50 [7]: 1050 nM
selectivity ratio [8]: 0.4
selectivity ratio [9]: 1.8

COC1=CC(=O)c2ccc(C)nc2C1=O
CC50 [1]: 11800 nM
CC50 [2]: 7400 nM
CC50 [5]: 4200 nM
CC50 at 120 h [6]: 6900 nM

COC(=O)c1nc(-c2ccc3c(n2)C(=O)C(NC(=O)CCl)=CC3=O)c2[nH]c3ccccc3c2c1C
CC50 [1]: 790 nM
CC50 [2]: 2000 nM
selectivity ratio [3]: 0.8
selectivity ratio [4]: 1
CC50 [5]: 580 nM
CC50 at 120 h [6]: 580 nM
CC50 [7]: 700 nM
selectivity ratio [8]: 0.3
selectivity ratio [9]: 0.7

NC1=CC(=O)c2ccc(C=O)nc2C1=O
CC50 [1]: 4300 nM
CC50 [2]: 2300 nM
CC50 [5]: 2200 nM
CC50 at 120 h [6]: 2400 nM

Cc1ccc2c(n1)C(=O)C(N)=CC2=O
CC50 [1]: 1300 nM
CC50 [2]: 800 nM
CC50 [5]: 600 nM
CC50 at 120 h [6]: 800 nM
